As a reminder, the IC50 is the concentration that inhibits the measured activity by half. A low value points to higher potency. The inhibition is the share of the control response that was lost under treatment. A lower inhibition goes with a weak effect.

Consider 21 molecules from patent US9012431B2, “Boron-containing small molecules as anti-inflammatory agents” (Anacor Pharmaceuticals, Inc., priority 2008, dated 2015).

The test system of experiment [1] is IFN-γ. Put plainly: Cytokine assay, IFN-γ release from PBMC. It counts as cell-based. The following applies: human PBMC, 20 ug/mL PHA; for IC50: supernatant at 24 hours; for inhibition at 10 µM: 24 hours. How it is done: (§1) The ability of the compounds described herein to inhibit pro-inflammatory cytokines or phsophodiesterases were tested.
(§2) Frozen human peripheral blood mononucleocytes (PBMC) were thawed and centrifuged. Cryopreservation media was aspirated off of the cell pellet, and the cells were resuspended in fresh culture media (CM) comprising RPMI 1640 and 10% FBS in 96 well plates. Test article was dissolved in DMSO to form a 10 mM sample (DMSO, 100%). The 10 mM samples were diluted to 100 μM in CM (DMSO, 1%), then further diluted to 10, 1, 0.1, 0.01 μM in 200 μL of CM (n=3). […] IL-23 was assayed using a commercial ELISA kit (R&D Systems).

Experiment [2] deals with IL-2. The experiment is described as follows: Cytokine assay, IL-2 release from PBMC. In kind it is cell-based. The following applies: human PBMC, 20 ug/mL PHA; for IC50: supernatant at 24 hours; for inhibition at 10 µM: 24 hours. How it is done:
as §1, §2

In experiment [3] the test system is TNF-α. Put plainly: Cytokine assay, TNF-α release from PBMC. In kind it is cell-based. The following applies: 1 μg/mL LPS; for IC50: supernatant at 24 hours. How it is done: as §1, §2
Experiment [4] has as its system IL-10. The experiment is described as follows: Cytokine assay, IL-10 release from PBMC. The following applies: human PBMC, 20 ug/mL PHA; for IC50: supernatant at 48 hours; for inhibition at 10 µM: 48 hours. In kind it is cell-based. How it is done: as §1, §2
Experiment [5] concerns IL-5. The experiment is described as follows: Cytokine assay, IL-5 release from PBMC. The following applies: human PBMC, 20 ug/mL PHA; for IC50: supernatant at 48 hours; for inhibition at 10 µM: 48 hours. It counts as cell-based. How it is done: as §1, §2
The test system of experiment [6] is T1, PDE4 partially purified from human U-937 myeloid leukemia cells.
T1 construct: PDE4 partially purified from human U-937 myeloid leukemia cells was used
The experiment is described as follows: PDE4 Assay (enzyme from U-937 cells, [3H]cAMP). It counts as biochemical. The following applies: PDE4 from U-937 cells, Tris buffer pH 7.5, 20 minutes at 25° C. How it is done: Test article and/or vehicle was incubated with 0.2 mg enzyme and 1 mM cAMP containing 0.01 mM [3H]cAMP in Tris buffer pH 7.5 for 20 minutes at 25° C. The reaction was terminated by boiling for 2 minutes and the resulting AMP is converted to adenosine by addition of 10 mg/ml snake venom nucleotidase and further incubation at 37° C. for 10 minutes. Unhydrolyzed cAMP is bound to AG1-X2 resin, and remaining [3H]Adenosine in the aqueous phase is quantitated by scintillation counting.

Counter-ions that a name gives are not always drawn.

Consider `N#Cc1ccc(Oc2ccc3c(c2)B(O)OC3)cc1` [C18, 6-(4-Cyanophenoxy)-1,3-dihydro-1-hydroxy-2,1-benzoxaborole], for which the IC50 in experiment [1] is more than 10000 nM; in experiment [2], more than 10000 nM; in experiment [3] (Homo sapiens, PBMC, 24 h), more than 10000 nM; in experiment [4], more than 10000 nM; in experiment [5], more than 10000 nM; in experiment [6] it was more than 10000 nM.
`COc1ccc(Oc2ccc3c(c2)B(O)OC3)cc1` [C31, 6-(4-Methoxyphenoxy)-1,3-dihydro-1-hydroxy-2,1-benzoxaborole] registered an inhibition at 10 µM in experiment [1] of 30 to 60%. In addition, the IC50 in experiment [2] was more than 10000 nM; in experiment [3] (Homo sapiens, PBMC, 24 h), more than 10000 nM; in experiment [4] it was more than 10000 nM; in experiment [5], more than 10000 nM; in experiment [6], 4000 to 10000 nM.
As for `O=C(O)c1ccc(Oc2ccc3c(c2)COB3O)cc1` [C38, 4-(1-hydroxy-1,3-dihydro-benzo[c][1,2]oxaborol-5-yloxy)-benzoic acid], the IC50 in experiment [1] was more than 10000 nM; in experiment [2], more than 10000 nM; in experiment [3] (Homo sapiens, PBMC, 24 h) it was more than 10000 nM; in experiment [4] it was more than 10000 nM; in experiment [5], more than 10000 nM; in experiment [6], 4000 to 10000 nM.
Consider `N#Cc1ccc(COc2ccc3c(c2)COB3O)cc1` [D1, 5-(4-Cyanobenzyloxy)-1,3-dihydro-1-hydroxy-2,1-benzoxaborole], for which the IC50 in experiment [1] is 1000 to 4000 nM; in experiment [2], 1000 to 4000 nM; in experiment [3] (Homo sapiens, PBMC, 24 h), 4000 to 10000 nM; in experiment [4] it was more than 10000 nM; in experiment [5], 1000 to 4000 nM; in experiment [6] it was 1000 to 4000 nM.
For `N#Cc1ccc(Oc2ccc3c(c2)COB3O)cc1Cl` [D2, 5-(3-Chloro-4-cyanophenoxy)-1-hydroxy-2,1-benzoxaborole], the IC50 is less than 1000 nM in experiment [1]; less than 1000 nM in experiment [2]; less than 1000 nM in experiment [3] (Homo sapiens, PBMC, 24 h); more than 10000 nM in experiment [4]; less than 1000 nM in experiment [5]; less than 1000 nM in experiment [6].
For `Cc1cc(Oc2ccc3c(c2)COB3O)ccc1C#N` [D3, 5-(4-Cyano-3-methylphenoxy)-1,3-dihydro-1-hydroxy-2,1-benzoxaborole], the IC50 was less than 1000 nM in experiment [1]; less than 1000 nM in experiment [2]; less than 1000 nM in experiment [3] (Homo sapiens, PBMC, 24 h); more than 10000 nM in experiment [4]; less than 1000 nM in experiment [5]; less than 1000 nM in experiment [6].
For `O=C1NC(=O)c2cc(Oc3ccc4c(c3)COB4O)ccc21` [D9, 5-(1,3-Dihydro-1-hydroxy-2,1-benzoxaborol-5-yloxy)isoindoline-1,3-dione], the IC50 in experiment [1] is less than 1000 nM; in experiment [2], less than 1000 nM; in experiment [3] (Homo sapiens, PBMC, 24 h), less than 1000 nM; in experiment [4], less than 1000 nM; in experiment [5] it was less than 1000 nM; in experiment [6] it was less than 1000 nM.
Consider `CC(=O)Oc1cc(Oc2ccc3c(c2)COB3O)ccc1C#N` [D11, 5-(4-Cyano-3-acetoxyphenoxy)-1,3-dihydro-1-hydroxy-2,1-benzoxaborole], for which the IC50 is 1000 to 4000 nM in experiment [1]; 1000 to 4000 nM in experiment [2]; less than 1000 nM in experiment [3] (Homo sapiens, PBMC, 24 h); 1000 to 4000 nM in experiment [4]; 4000 to 10000 nM in experiment [5]; less than 1000 nM in experiment [6].
Consider `N#Cc1c(Cl)cccc1Oc1ccc2c(c1)COB2O` [D13, 5-(3-Chloro-2-cyanophenoxy)-1,3-dihydro-1-hydroxy-2,1-benzoxaborole], for which the IC50 in experiment [1] lay within 1000 to 4000 nM; in experiment [2], 1000 to 4000 nM; in experiment [3] (Homo sapiens, PBMC, 24 h), 4000 to 10000 nM; in experiment [4] it was 1000 to 4000 nM; in experiment [5], 1000 to 4000 nM; in experiment [6] it was 1000 to 4000 nM.
On to `N#Cc1ccc(Oc2ccc3c(c2)COB3O)c(CNC=O)c1` [D25, 5-[4-Cyano-2-(formylaminomethyl)phenoxy]-1,3-dihydro-1-hydroxy-2,1-benzoxaborole], for which the IC50 in experiment [1] is 1000 to 4000 nM; in experiment [2], less than 1000 nM; in experiment [3] (Homo sapiens, PBMC, 24 h), 4000 to 10000 nM; in experiment [4], 1000 to 4000 nM; in experiment [5] it was less than 1000 nM; in experiment [6], less than 1000 nM.
Consider `N#Cc1ccc(Oc2ccc3c(c2)COB3O)c(CN)c1` [D26, 5-(2-Aminomethyl-4-cyanophenoxy)-1,3-dihydro-1-hydroxy-2,1-benzoxaborole hydrochloride], for which the IC50 in experiment [1] was 4000 to 10000 nM; in experiment [2] it was 1000 to 4000 nM; in experiment [3] (human PBMC, hydrochloride), more than 10000 nM; in experiment [4], more than 10000 nM; in experiment [5], 4000 to 10000 nM; in experiment [6], 1000 to 4000 nM.
As to `CCN(CC)C(=O)COc1cc(C#N)ccc1Oc1ccc2c(c1)COB2O` [D28, 2-(5-cyano-2-(1-hydroxy-1,3-dihydrobenzo[c][1,2]oxaborol-5-yloxy)phenoxy)-N,N-diethylacetamide], the IC50 in experiment [1] was less than 1000 nM; in experiment [2] it was less than 1000 nM; in experiment [3] (Homo sapiens, PBMC, 24 h), less than 1000 nM; in experiment [4], 1000 to 4000 nM; in experiment [5], less than 1000 nM; in experiment [6] it was less than 1000 nM.
As for `CC(C)(C)OC(=O)COc1cc(C#N)ccc1Oc1ccc2c(c1)COB2O` [D30, 5-[4-Cyano-2-(tert-butoxycarbonylmethoxy)phenoxy], 3-dihydro-1-hydroxy-2,1-benzoxaborole], the concentration for half-maximal inhibition (IC50) in experiment [1] is less than 1000 nM; in experiment [2] it was less than 1000 nM; in experiment [3] (Homo sapiens, PBMC, 24 h) it was less than 1000 nM; in experiment [4], less than 1000 nM; in experiment [5], less than 1000 nM; in experiment [6], less than 1000 nM.
On to `CCOC(=O)COc1cc(Oc2ccc3c(c2)COB3O)ccc1C#N` [D38, [2-Cyano-5-(1-hydroxy-1,3-dihydro-benzo[c][1,2]oxaborol-5-yloxy)-phenoxy]-acetic acid ethyl ester], for which the IC50 was less than 1000 nM in experiment [1]; less than 1000 nM in experiment [2]; less than 1000 nM in experiment [3] (Homo sapiens, PBMC, 24 h); 1000 to 4000 nM in experiment [4]; less than 1000 nM in experiment [5]; less than 1000 nM in experiment [6].
Turning to `CC(C)(C)OC(=O)COc1cc(Oc2ccc3c(c2)COB3O)ccc1C#N` [D40, [2-Cyano-5-(1-hydroxy-1,3-dihydro-benzo[c][1,2]oxaborol-5-yloxy)-phenoxy]-acetic acid tert-butyl ester], the concentration for half-maximal inhibition (IC50) in experiment [1] was less than 1000 nM; in experiment [2] it was less than 1000 nM; in experiment [3] (Homo sapiens, PBMC, 24 h), less than 1000 nM; in experiment [4], less than 1000 nM; in experiment [5] it was less than 1000 nM; in experiment [6] it was less than 1000 nM.
`NCc1ccc(Oc2ccc3c(c2)COB3O)cc1` [D59, (4-(1-Hydroxy-1,3-dihydrobenzo[c][1,2]oxaborol-5-yloxy)phenyl) methanaminium chloride]: the inhibition at 10 µM is 60 to 90% in experiment [2]; 30 to 60% in experiment [3] (human PBMC, 24 hours, 10 μM); less than 30% in experiment [4]; 30 to 60% in experiment [5]. This molecule also gave an IC50 in experiment [6] of more than 10000 nM.
`NCc1ccc(Oc2ccc3c(c2)COB3O)nc1NCCO` [D117]: the IC50 in experiment [1] is more than 10000 nM; in experiment [2] it was 1000 to 4000 nM; in experiment [3] (Homo sapiens, PBMC, 24 h), 1000 to 4000 nM; in experiment [4], more than 10000 nM; in experiment [5] it was 1000 to 4000 nM.
For the molecule `N#Cc1ccc(Oc2ccc3c(c2)COB3O)nc1NCc1ccccc1` [D121, 2-Benzylamino-6-(1-hydroxy-1,3-dihydro-benzo[c][1,2]oxaborol-5-yloxy)-nicotinonitrile], the IC50 in experiment [1] is less than 1000 nM; in experiment [2], less than 1000 nM; in experiment [3] (Homo sapiens, PBMC, 24 h) it was less than 1000 nM; in experiment [4], 1000 to 4000 nM; in experiment [5], less than 1000 nM.
Turning to `N#Cc1ccc(Oc2ccc3c(c2)COB3O)nc1NCCO` [D132, 6-(1-hydroxy-1,3-dihydro-benzo[c][1,2]oxaborol-5-yloxy)-2-(2-hydroxy-ethylamino)-nicotinonitrile], the 50% inhibitory concentration (IC50) is less than 1000 nM in experiment [1]; less than 1000 nM in experiment [2]; less than 1000 nM in experiment [3] (Homo sapiens, PBMC, 24 h); less than 1000 nM in experiment [4]; less than 1000 nM in experiment [5].
Take `N#Cc1cc(CNC=O)ccc1Oc1ccc2c(c1)COB2O` [D137, 5-[2-Cyano-4-(formylaminomethyl)phenoxy]-1,3-dihydro-1-hydroxy-2,1-benzoxaborole]: the inhibition at 10 µM in experiment [1] was in the range of 60 to 90%; in experiment [2], 60 to 90%; in experiment [4], 30 to 60%; in experiment [5] it was 30 to 60%. The molecule further returned an IC50 in experiment [3] (Homo sapiens, PBMC, 24 h) of 1000 to 4000 nM.
`N#Cc1ccc(Oc2ccc3c(c2)COB3O)c(CN)c1` [D138, 5-(2-Aminomethyl-4-cyanophenoxy)-1,3-dihydro-1-hydroxy-2,1-benzoxaborole hydrochloride]: the inhibition at 10 µM in experiment [1] lay in the range of 30 to 60%; in experiment [2], 60 to 90%; in experiment [4], 30 to 60%; in experiment [5], 60 to 90%. This molecule also showed an IC50 in experiment [3] (human PBMC, hydrochloride) of 1000 to 4000 nM.
